Read-outs that look alike come from different tables or passages of the source. One block for each molecule: values may come before it.
How the values were obtained:
[1] = Solubility in water
Text: The arteannuin-cyclodextrin conjugate according to the present invention uses a cyclodextrin as a carrier, and a molecule of an arteannuin compound is connected, via an amide bond formed between the carboxyl group thereof and any amine group of the cyclodextrin modified by an amine group, to the cyclodextrin.

[2] = test system: HCT116; assay: MTT assay, growth inhibition of human rectal cancer cells; assay type: cell-based
Method: (§1) For example, 180 µl suspension of human rectal cancer cells HCT116, Lovo, SW480 and HT29 at a concentration of 4×10^4/mL is added to 96-well culture plate, and pre-cultured under the conditions of 5% CO2, 37°C and saturated moisture for 24h. After 150 µl medium is replaced, 20 µl medium containing molecular assembly at different concentrations is added, and cultured for another 48 h, with the medium free of a sample as a negative control, and a medium containing camptothecin, oxaliplatin and fluorouracil at different concentrations as a positive control. MTT assay is used to determine the OD value, and to calculate the growth inhibition rate. The inhibition of compounds at high, medium and low concentrations on the tumor cell proliferation is observed. All the experiments above are performed in triplet. Results for in vitro experiment of the arteannuin-cyclodextrin conjugate with respect to human rectum and caecum cancer cells are shown in table 1. Table 1 IC50 value (µM) for certain arteannuin compounds in several rectum cancer cells

[3] = test system: HT29; assay: as above; assay type: cell-based; settings: 48 h
Method: as §1

[4] = test system: Lovo; assay: as above; assay type: cell-based; settings: 48 h
Method: as §1

[5] = test system: SW480; assay: as above; assay type: cell-based; settings: 48 h
Method: as §1

[6] = test system: Hep2 hepatoma; settings: mice, intraperitoneal injection, 60 mg/kg; cited from earlier work
[7] = test system: hepatocarcinoma H22; settings: mice, 300 mg/kg by gavage; cited from earlier work
[8] = Homo sapiens, HT-29, HT 90 [sic] cells (method: HT29)
[9] = HT 90 [sic] cells (method: HT29)
[10] = isolated product of the example

Molecule: O=C1[O][Pt]2([NH][C@@H]3CCCC[C@H]3[NH]2)[O]C1=O [oxaliplatin]
IC50 ([2]; 48 h): 0.76 µM
IC50 [3, 9]: 9.7 µM
IC50 [4]: 1.51 µM
IC50 [5]: 30.1 µM

Molecule: conjugate of mono-[6-(ethanediamine)-6-deoxy]-β-cyclodextrin and the compound in which C-12 of the arteannuin was connected with a phenoxy group [Example 5]
solubility [1]: 68 mg/mL

Molecule: conjugate of mono-[6-(monoamine)-6-deoxy]-β-cyclodextrin and the compound in which C-12 of the arteannuin was connected with a phenoxy group [Example 6]
solubility [1, 10]: 54 mg/mL

Molecule: mono-[6-(ethanediamine)-6-deoxy]-β-cyclodextrin-artesunate conjugate [Example 1]
IC50 ([2]; 48 h): 0.58 µM
IC50 [3, 9]: 5.18 µM
IC50 [4]: 1.62 µM
IC50 [5]: 3.89 µM
solubility [1, 10]: 68 mg/mL

The next lines start with results.

solubility in water ([1]; in water): almost insoluble in water
Molecule: C[C@@H]1CC[C@H]2[C@@H](C)C(=O)O[C@@H]3O[C@@]4(C)CC[C@@H]1[C@]32OO4 [arteannuin]

IC50 ([2]; Homo sapiens, HCT-116, 48 h): 1.04 µM
IC50 [3, 8]: 9.11 µM
IC50 ([4]; Homo sapiens): 2.6 µM
IC50 ([5]; Homo sapiens): 1.82 µM
solubility in water ([1]; in water): almost insoluble in water
Molecule: C[C@H]1[C@H](OC(=O)CCC(=O)O)O[C@@H]2O[C@@]3(C)CC[C@H]4[C@H](C)CC[C@@H]1[C@@]24OO3 [artesunate]
anti-tumor rate [6]: 80.4%
anti-tumor rate [7]: ≥ 40%

IC50 ([2]; Homo sapiens, HCT-116, 48 h): 1.76 µM
IC50 [3, 8]: 21.1 µM
IC50 ([4]; Homo sapiens): 2.11 µM
IC50 ([5]; Homo sapiens): 14.1 µM
solubility in water [1]: almost insoluble in water
Molecule: C[C@H]1[C@@H](O)O[C@@H]2O[C@@]3(C)CC[C@H]4[C@H](C)CC[C@@H]1[C@@]24OO3 [dihydroarteannuin]

IC50 ([2]; Homo sapiens, HCT-116, 48 h): 5.4 µM
IC50 [3, 8]: 38.5 µM
IC50 ([4]; Homo sapiens): 23 µM
IC50 ([5]; Homo sapiens): 30.8 µM
Molecule: O=c1[nH]cc(F)c(=O)[nH]1 [fluorouracil]

Reference: patent EP2933270B1, “ARTEANNUIN CYCLODEXTRIN CONJUGATE AND PREPARING METHOD THEREOF” (KPC Pharmaceuticals, Inc., priority 2012, dated 2014)
